Measurements from ChEMBL document CHEMBL5500384, “New synergistic benzoquinone scaffolds as inhibitors of mycobacterial cytochrome bc1 complex to treat multi-drug resistant tuberculosis” (Eur J Med Chem, 2024).
≈ marks a conversion by molar mass, not a printed value.

How the values were obtained:
[1] = system: Mycobacterium tuberculosis; test: Antitubercular activity against Mycobacterium tuberculosis H37Rv incubated for 5 days by microtiter plate method; assay type: functional; conditions: 120 h, time 5 day
[2] = Cytotoxicity against african green monkey Vero cells by MTT assay; assay type: toxicity, cell-based; conditions: chlorocebus sabaeus
[3] = Cytotoxicity against african green monkey Vero cells assessed as cell viability at 100 ug/ml by MTT assay; assay type: toxicity, cell-based; conditions: chlorocebus sabaeus, at 100 µg/mL, read-out: Activity
[4] = Cytotoxicity against african green monkey Vero cells assessed as cell viability at 50 ug/ml by MTT assay; assay type: toxicity, cell-based; conditions: chlorocebus sabaeus, at 50 µg/mL, read-out: Activity
[5] = Cytotoxicity against african green monkey Vero cells assessed as cell viability at 25 ug/ml by MTT assay; assay type: toxicity, cell-based; conditions: chlorocebus sabaeus, at 25 µg/mL, read-out: Activity
[6] = Cytotoxicity against african green monkey Vero cells assessed as cell viability at 12.5 ug/ml by MTT assay; assay type: toxicity, cell-based; conditions: chlorocebus sabaeus, at 12.5 µg/mL, read-out: Activity
[7] = Cytotoxicity against african green monkey Vero cells assessed as cell viability at 6.25 ug/ml by MTT assay; assay type: toxicity, cell-based; conditions: chlorocebus sabaeus, at 6.25 µg/mL, read-out: Activity
[8] = Cytotoxicity against african green monkey Vero cells assessed as cell viability at 3.125 ug/ml by MTT assay; assay type: toxicity, cell-based; conditions: chlorocebus sabaeus, at 3.125 µg/mL, read-out: Activity
[9] = Acute toxicity in Albino mouse assessed as mortality at 2000 mg/kg, po after 2 to 4 hrs; assay type: organism-based; conditions: in vivo, time 2-4 hrs
[10] = Acute toxicity in Albino mouse assessed as mortality at 300 mg/kg, po after 14 days; assay type: organism-based; conditions: in vivo, 336 h, time 14 day
[11] = Acute toxicity in po dosed Albino mouse assessed as mortality after 14 days; assay type: organism-based; conditions: in vivo, time 14 day
[12] = Acute toxicity in Albino mouse assessed as change in hemoglobin level at 50 to 2000 mg/kg, po measured after 14 days (reference value: 12.8 g/dl); assay type: organism-based; conditions: in vivo, 336 h, dose 50-2000 mg/kg, time 14 day
[13] = Acute toxicity in Albino mouse assessed as change in total leucocyte count at 50 to 2000 mg/kg, po measured after 14 days (reference value: 7400 mm3); assay type: organism-based; conditions: in vivo, 336 h, dose 50-2000 mg/kg, time 14 day
[14] = Acute toxicity in Albino mouse assessed as change in neutrophils at 50 to 2000 mg/kg, po measured after 14 days (reference value: 75%); assay type: organism-based; conditions: in vivo, 336 h, dose 50-2000 mg/kg, time 14 day
[15] = Acute toxicity in Albino mouse assessed as change in lymphocytes at 50 to 2000 mg/kg, po measured after 14 days (reference value: 21%); assay type: organism-based; conditions: in vivo, 336 h, dose 50-2000 mg/kg, time 14 day
[16] = Acute toxicity in Albino mouse assessed as change in eosinophils at 50 to 2000 mg/kg, po measured after 14 days (reference value: 3%); assay type: organism-based; conditions: in vivo, 336 h, dose 50-2000 mg/kg, time 14 day
[17] = Acute toxicity in Albino mouse assessed as change in monocytes at 50 to 2000 mg/kg, po measured after 14 days (reference value: 1%); assay type: organism-based; conditions: in vivo, 336 h, dose 50-2000 mg/kg, time 14 day
[18] = Acute toxicity in Albino mouse assessed as change in ESR at 50 to 2000 mg/kg, po measured after 14 days (reference value: 10 millimeter); assay type: organism-based; conditions: in vivo, 336 h, dose 50-2000 mg/kg, time 14 day
[19] = Acute toxicity in Albino mouse assessed as change in platelet count at 50 to 2000 mg/kg, po measured after 14 days (reference value: 3.24 mm3); assay type: organism-based; design: unit not given here; conditions: in vivo, 336 h, dose 50-2000 mg/kg, time 14 day
[20] = Acute toxicity in Albino mouse assessed as change in RBC count measured per million cells at 50 to 2000 mg/kg, po measured after 14 days (reference value: 9.15 microL); assay type: organism-based, Erythrocyte; conditions: in vivo, 336 h, dose 50-2000 mg/kg, time 14 day
[21] = Acute toxicity in Albino mouse assessed as change in SGOT count at 50 to 2000 mg/kg, po measured after 14 days (reference value: 42 IU/L); assay type: organism-based; conditions: in vivo, 336 h, dose 50-2000 mg/kg, time 14 day
[22] = Acute toxicity in Albino mouse assessed as change in SGPT count at 50 to 2000 mg/kg, po measured after 14 days (reference value: 52 IU/L); assay type: organism-based; conditions: in vivo, 336 h, dose 50-2000 mg/kg, time 14 day
[23] = Acute toxicity in Albino mouse assessed as change in serum creatine level at 50 to 2000 mg/kg, po measured after 14 days (reference value: 0.9 mg/dl); assay type: organism-based; conditions: in vivo, 336 h, dose 50-2000 mg/kg, time 14 day
[24] = Acute toxicity in Albino mouse assessed as change in serum urea level at 50 to 2000 mg/kg, po measured after 14 days (reference value: 46 mg/dl); assay type: organism-based; conditions: in vivo, 336 h, dose 50-2000 mg/kg, time 14 day
[25] = Acute toxicity in Albino mouse assessed as change in ALP level at 50 to 2000 mg/kg, po measured after 14 days (reference value: 28 IU/L); assay type: organism-based; conditions: in vivo, 336 h, dose 50-2000 mg/kg, time 14 day
[26] = Acute toxicity in Albino mouse assessed as change in LDH level at 50 to 2000 mg/kg, po measured after 14 days (reference value: 1052 IU/L); assay type: organism-based; conditions: in vivo, 336 h, dose 50-2000 mg/kg, time 14 day
[27] = Renal toxicity in Albino mouse assessed as change in renal corpuscles at 50 to 2000 mg/kg, po measured after 14 days; assay type: organism-based; conditions: in vivo, 336 h, dose 50-2000 mg/kg, time 14 day
[28] = Renal toxicity in Albino mouse assessed as change in renal tubules at 50 to 2000 mg/kg, po measured after 14 days; assay type: organism-based; conditions: in vivo, 336 h, dose 50-2000 mg/kg, time 14 day
[29] = Renal toxicity in Albino mouse assessed as change in Bowman's capsule at 50 to 2000 mg/kg, po measured after 14 days; assay type: organism-based; conditions: in vivo, 336 h, dose 50-2000 mg/kg, time 14 day
[30] = Renal toxicity in Albino mouse assessed as change in proximal convoluted tubules at 50 to 2000 mg/kg, po measured after 14 days; assay type: organism-based; conditions: in vivo, 336 h, dose 50-2000 mg/kg, time 14 day
[31] = Renal toxicity in Albino mouse assessed as change in distal convoluted tubules at 50 to 2000 mg/kg, po measured after 14 days; assay type: organism-based; conditions: in vivo, 336 h, dose 50-2000 mg/kg, time 14 day
[32] = Renal toxicity in Albino mouse assessed as change in tubular capillaries at 50 to 2000 mg/kg, po measured after 14 days; assay type: organism-based; conditions: in vivo, 336 h, dose 50-2000 mg/kg, time 14 day
[33] = Renal toxicity in Albino mouse assessed as extravasation of RBC at 50 to 2000 mg/kg, po measured after 14 days; assay type: organism-based, Erythrocyte; conditions: in vivo, 336 h, dose 50-2000 mg/kg, time 14 day
[34] = Renal toxicity in Albino mouse assessed as structural absorbability abnormalities at 50 to 2000 mg/kg, po measured after 14 days; assay type: organism-based; conditions: in vivo, 336 h, dose 50-2000 mg/kg, time 14 day
[35] = Hepatotoxicity in Albino mouse assessed as change in central vein at 50 to 2000 mg/kg, po measured after 14 days; assay type: toxicity, organism-based; conditions: in vivo, 336 h, dose 50-2000 mg/kg, time 14 day
[36] = Hepatotoxicity in Albino mouse assessed as change in portal tracks at 50 to 2000 mg/kg, po measured after 14 days; assay type: toxicity, organism-based; conditions: in vivo, 336 h, dose 50-2000 mg/kg, time 14 day
[37] = Hepatotoxicity in Albino mouse assessed as change in portal vein at 50 to 2000 mg/kg, po measured after 14 days; assay type: toxicity, organism-based; conditions: in vivo, 336 h, dose 50-2000 mg/kg, time 14 day
[38] = Hepatotoxicity in Albino mouse assessed as change in hepatic artery at 50 to 2000 mg/kg, po measured after 14 days; assay type: toxicity, organism-based, Liver; conditions: in vivo, 336 h, dose 50-2000 mg/kg, time 14 day
[39] = Hepatotoxicity in Albino mouse assessed as change in bile duct at 50 to 2000 mg/kg, po measured after 14 days; assay type: toxicity, organism-based, Liver; conditions: in vivo, 336 h, dose 50-2000 mg/kg, time 14 day
[40] = Hepatotoxicity in Albino mouse assessed as change in hepatocytes at 50 to 2000 mg/kg, po measured after 14 days; assay type: toxicity, organism-based; conditions: in vivo, 336 h, dose 50-2000 mg/kg, time 14 day
[41] = Pulmonary toxicity in Albino mouse assessed as change in bronchi structure at 50 to 2000 mg/kg, po measured after 14 days; assay type: organism-based; conditions: in vivo, 336 h, dose 50-2000 mg/kg, time 14 day
[42] = Pulmonary toxicity in Albino mouse assessed as change in alveoli structure at 50 to 2000 mg/kg, po measured after 14 days; assay type: organism-based; conditions: in vivo, 336 h, dose 50-2000 mg/kg, time 14 day
[43] = Pulmonary toxicity in Albino mouse assessed as change in alveolar sacs at 50 to 2000 mg/kg, po measured after 14 days; assay type: organism-based; conditions: in vivo, 336 h, dose 50-2000 mg/kg, time 14 day
[44] = Pulmonary toxicity in Albino mouse assessed as change in squamous pneumocytes at 50 to 2000 mg/kg, po measured after 14 days; assay type: organism-based; conditions: in vivo, 336 h, dose 50-2000 mg/kg, time 14 day
[45] = Pulmonary toxicity in Albino mouse assessed as appearance of goblet cells at 50 to 2000 mg/kg, po measured after 14 days; assay type: organism-based; conditions: in vivo, 336 h, dose 50-2000 mg/kg, time 14 day
[46] = Pulmonary toxicity in Albino mouse assessed as appearance of cilia at 50 to 2000 mg/kg, po measured after 14 days; assay type: organism-based; conditions: in vivo, 336 h, dose 50-2000 mg/kg, time 14 day

CCOc1cc(C2C(Cl)C(=O)N2C2=C(Cl)C(=O)c3ccccc3C2=O)ccc1O (stereo unspecified)
MIC [1]: 14.5 µM (≈ 6.25 µg/mL)
Activity [2]: Dose-Dependent Effect
viability at 100 ug/ml [3]: 10.4%
viability at 50 ug/ml [4]: 30.6%
viability at 25 ug/ml [5]: 67.8%
viability at 12.5 ug/ml [6]: 100%
viability at 6.25 ug/ml [7]: 100%
viability at 3.125 ug/ml [8]: 100%
Activity [9]: Toxic
Activity [10]: Non-Toxic
LD50 at 336 h [11]: 300 mg/kg
Activity [12]: 12.5 g/dL
Activity [13]: 8200 mm3
Activity [14]: 66%
Activity [15]: 34%
Activity [16]: 3%
Activity [17]: 1%
Activity [18]: 11 millimeter/hr
Activity [19]: 4.9
Activity [20]: 8.95
Activity [21]: 168.67 IU/L
Activity [22]: 75.33 IU/L
Activity [23]: < 0.3 mg/dL
Activity [24]: 35.72 mg/dL
Activity [25]: 832.75 IU/L
Activity [26]: 470.21 IU/L
Activity [27]: Non-Toxic
Activity [28]: Non-Toxic
Activity [29]: Non-Toxic
Activity [30]: Non-Toxic
Activity [31]: Non-Toxic
Activity [32]: Non-Toxic
Activity [33]: Non-Toxic
Activity [34]: Non-Toxic
Activity [35]: Non-Toxic
Activity [36]: Non-Toxic
Activity [37]: Non-Toxic
Activity [38]: Non-Toxic
Activity [39]: Non-Toxic
Activity [40]: Non-Toxic
Activity [41]: Non-Toxic
Activity [42]: Non-Toxic
Activity [43]: Non-Toxic
Activity [44]: Non-Toxic
Activity [45]: Non-Toxic
Activity [46]: Non-Toxic
